pIC50: −log10 of the molar value. Several values for one entry are separate records, joined by “and”; a condition that tells them apart may be missing. Identical values can stand only once.
Tested on: 485368-065-R4-J2-PDC spheroids with HUVEC/MSC, viability
Assay: Anticancer human tumor 485368-065-R4-J2-PDC patient-derived pancreatic carcinoma cell line growth inhibition [CLK]
Conditions: for viability, T/C: stronger effect = lower value
How it was run: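 Multi-cell-type spheroids combined patient-derived tumor cells with HUVEC endothelial cells and human mesenchymal stem cells. Paired agents were dosed in half-log steps down from about clinical Cmax, or from 10 microM where Cmax was unknown.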

[1] = curve of first compound, second compound 0.0316 µM
[2] = curve of first compound, second compound 0.1 µM
[3] = curve of first compound, second compound 0.316 µM
[4] = curve of first compound, second compound 1 µM
[5] = curve of first compound, second compound 3.16 µM
[6] = curve of first compound, second compound 10 µM
[7] = second compound 0.0316 µM, first compound 0.0316 µM
[8] = second compound 0.0316 µM, first compound 0.1 µM
[9] = second compound 0.0316 µM, first compound 0.316 µM
[10] = second compound 0.0316 µM, first compound 1 µM
[11] = second compound 0.1 µM, first compound 0.0316 µM
[12] = second compound 0.1 µM, first compound 0.1 µM
[13] = second compound 0.1 µM, first compound 0.316 µM
[14] = second compound 0.1 µM, first compound 1 µM
[15] = second compound 0.316 µM, first compound 0.0316 µM
[16] = second compound 0.316 µM, first compound 0.1 µM
[17] = second compound 0.316 µM, first compound 0.316 µM
[18] = second compound 0.316 µM, first compound 1 µM
[19] = second compound 1 µM, first compound 0.0316 µM
[20] = second compound 1 µM, first compound 0.1 µM
[21] = second compound 1 µM, first compound 0.316 µM
[22] = second compound 1 µM, first compound 1 µM
[23] = second compound 3.16 µM, first compound 0.0316 µM
[24] = second compound 3.16 µM, first compound 0.1 µM
[25] = second compound 3.16 µM, first compound 0.316 µM
[26] = second compound 3.16 µM, first compound 1 µM
[27] = second compound 10 µM, first compound 0.0316 µM
[28] = second compound 10 µM, first compound 0.1 µM
[29] = second compound 10 µM, first compound 0.316 µM
[30] = second compound 10 µM, first compound 1 µM
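Further: spheroids exposed to compounds for seven days.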
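Wherever viability, T/C is given: 100% = DMSO vehicle control wells.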

Structure (SMILES): CCN1CCN(Cc2ccc(Nc3ncc(F)c(-c4cc(F)c5nc(C)n(C(C)C)c5c4)n3)nc2)CC1 + CNC(=O)c1ccc(Nc2nc(OC3CCCC3)c3c(-c4ccc5nc(C)oc5c4)c[nH]c3n2)c(OC)c1
- pIC50 [1]: < 6.00
- pIC50 [2]: < 6.00
- pIC50 [3]: < 6.00
- pIC50 [4]: < 6.00
- pIC50 [5]: < 6.00
- pIC50 [6]: < 6.00
- viability, T/C (second compound 0.0316 µM, first compound 0.00316 µM): 95.9%
- viability, T/C (second compound 0.0316 µM, first compound 0.01 µM): 106%
- viability, T/C [7]: 103%
- viability, T/C [8]: 135%
- viability, T/C [9]: 134%
- viability, T/C [10]: 117%
- viability, T/C (second compound 0.1 µM, first compound 0.00316 µM): 89.4%
- viability, T/C (second compound 0.1 µM, first compound 0.01 µM): 92%
- viability, T/C [11]: 93%
- viability, T/C [12]: 95.1%
- viability, T/C [13]: 109%
- viability, T/C [14]: 100%
- viability, T/C (second compound 0.316 µM, first compound 0.00316 µM): 81.5%
- viability, T/C (second compound 0.316 µM, first compound 0.01 µM): 81%
- viability, T/C [15]: 75.2%
- viability, T/C [16]: 66.5%
- viability, T/C [17]: 84.5%
- viability, T/C [18]: 72.9%
- viability, T/C (second compound 1 µM, first compound 0.00316 µM): 71.8%
- viability, T/C (second compound 1 µM, first compound 0.01 µM): 77.3%
- viability, T/C [19]: 82.8%
- viability, T/C [20]: 75.7%
- viability, T/C [21]: 75.4%
- viability, T/C [22]: 73.2%
- viability, T/C (second compound 3.16 µM, first compound 0.00316 µM): 72.7%
- viability, T/C (second compound 3.16 µM, first compound 0.01 µM): 71.7%
- viability, T/C [23]: 67.1%
- viability, T/C [24]: 63.1%
- viability, T/C [25]: 60.2%
- viability, T/C [26]: 63.2%
- viability, T/C (second compound 10 µM, first compound 0.00316 µM): 72.1%
- viability, T/C (second compound 10 µM, first compound 0.01 µM): 65.1%
- viability, T/C [27]: 66%
- viability, T/C [28]: 60.7%
- viability, T/C [29]: 60.4%
- viability, T/C [30]: 56.3%

Structure (SMILES): C=C(F)C(=O)N1CCN(c2nc(OCC3CCCN3C)nc3c2CCN(c2cccc4cccc(Cl)c24)C3)CC1CC#N (stereo not drawn)
- viability, T/C (compound 0.0316 µM): 94.9% and 103%
- viability, T/C (compound 0.1 µM): 97% and 106%
- viability, T/C (compound 0.316 µM): 95.6% and 100%
- viability, T/C (compound 1 µM): 106% and 105%
- viability, T/C (compound 3.16 µM): 121% and 113%
- viability, T/C (compound 10 µM): 104% and 126%
- pIC50 (curve of compound): < 5.00

Structure (SMILES): CC(=O)O[C@H]1C(=O)[C@@]2(C)[C@H]([C@H](OC(=O)c3ccccc3)[C@]3(O)C[C@H](OC(=O)[C@H](O)[C@@H](NC(=O)c4ccccc4)c4ccccc4)C(C)=C1C3(C)C)[C@]1(OC(C)=O)CO[C@@H]1C[C@@H]2O + CNC(=O)c1ccc(Nc2nc(OC3CCCC3)c3c(-c4ccc5nc(C)oc5c4)c[nH]c3n2)c(OC)c1
- pIC50 [1]: < 5.00
- pIC50 [2]: < 5.00
- pIC50 [3]: < 5.00
- pIC50 [4]: < 5.00
- pIC50 [5]: < 5.00
- pIC50 [6]: < 5.00
- viability, T/C [7]: 63.4%
- viability, T/C [8]: 49.2%
- viability, T/C [9]: 55.9%
- viability, T/C [10]: 62.6%
- viability, T/C (second compound 0.0316 µM, first compound 3.16 µM): 56.5%
- viability, T/C (second compound 0.0316 µM, first compound 10 µM): 55.8%
- viability, T/C [11]: 59.1%
- viability, T/C [12]: 66.3%
- viability, T/C [13]: 60.4%
- viability, T/C [14]: 56.7%
- viability, T/C (second compound 0.1 µM, first compound 3.16 µM): 55.2%
- viability, T/C (second compound 0.1 µM, first compound 10 µM): 76.5%
- viability, T/C [15]: 76.3%
- viability, T/C [16]: 79.7%
- viability, T/C [17]: 85.2%
- viability, T/C [18]: 85.6%
- viability, T/C (second compound 0.316 µM, first compound 3.16 µM): 86.6%
- viability, T/C (second compound 0.316 µM, first compound 10 µM): 102%
- viability, T/C [19]: 73.8%
- viability, T/C [20]: 82.2%
- viability, T/C [21]: 81.6%
- viability, T/C [22]: 83.5%
- viability, T/C (second compound 1 µM, first compound 3.16 µM): 90.5%
- viability, T/C (second compound 1 µM, first compound 10 µM): 91.9%
- viability, T/C [23]: 74.4%
- viability, T/C [24]: 80.1%
- viability, T/C [25]: 86.4%
- viability, T/C [26]: 78.6%
- viability, T/C (second compound 3.16 µM, first compound 3.16 µM): 88%
- viability, T/C (second compound 3.16 µM, first compound 10 µM): 88.9%
- viability, T/C [27]: 67.5%
- viability, T/C [28]: 78.8%
- viability, T/C [29]: 73.9%
- viability, T/C [30]: 77.5%
- viability, T/C (second compound 10 µM, first compound 3.16 µM): 82.4%
- viability, T/C (second compound 10 µM, first compound 10 µM): 95.4%

Structure (SMILES): CC(Nc1ccc2c(c1)OCCn1cc(N3C(=O)OCC3C(F)F)nc1-2)C(N)=O (stereo not drawn)
- viability, T/C (compound 0.0316 µM): 95.1% and 99.5%
- viability, T/C (compound 0.1 µM): 102% and 117%
- viability, T/C (compound 0.316 µM): 116% and 105%
- viability, T/C (compound 1 µM): 100% and 102%
- viability, T/C (compound 3.16 µM): 91.4% and 89.5%
- viability, T/C (compound 10 µM): 86.5% and 79.1%
- pIC50 (curve of compound): < 5.00

Reference: PubChem BioAssay AID2060617 (Molecular Pharmacology Branch, DTP, NCI, 2025)
